Assay results reported in patent publication US20260176289A1, “SMALL MOLECULE INHIBITORS OF KRAS PROTEINS” (Merck Sharp & Dohme LLC, priority 2022, published 2026).

Tests used:
[1] = target: KRAS-WT (Homo sapiens, UniProt P01116); assay: SOS-catalyzed nucleotide exchange assay (Procedure A, TR-FRET), KRAS-WT; type: biochemical; conditions: nucleotide exchange, read-out: KRAS WT GNE IC50
In short: (§1)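 RAS (G12C carries C51S/C80L/C118S) loaded with Bodipy-GDP, complexed with Tb-streptavidin; cpd 60 min RT; + SOS/3 mM GTP. G12C 3/40 nM, WT 1/40, NRAS 1.25/40 nM RAS/SOS, 60 min; G12V 1.25/160 nM, 90 min. Normalized to DMSO and saturating inhibitor; 4PL fit.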

[2] = target: KRAS-G13D (Homo sapiens, UniProt P01116, G13D); assay: SOS-catalyzed nucleotide exchange assay (Procedure A, TR-FRET), KRAS-G13D; type: biochemical; conditions: nucleotide exchange, Procedure A; read-out: KRAS G13D GNE IC50
[3] = test system: SW620 cells; assay: Cellular phospho-ERK assay, SW620 cells (homozygous KRAS-G12V); type: cell-based; conditions: Homo sapiens, SW-620, 2 hours compound incubation, read-out: SW620 pERK IC50
In short: (§2)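 Readout: p-ERK/total ERK ratio measured by Alpha SureFire Ultra multiplex in lysates after 2 h compound exposure (37 °C, 5% CO2). Dosing ran 10 points, 1:3 dilutions, highest final concentration 30 μM. IC50 values derived by four-parameter logistic regression.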

[4] = test system: MKN-1 cells; assay: Cellular phospho-ERK assay, MKN-1 cells (amplified wild-type KRAS); type: cell-based; conditions: Homo sapiens, 2 hours compound incubation, read-out: MKN1 pERK IC50
In short: as §2

[5] = target: KRAS-G12V (Homo sapiens, UniProt P01116, G12V); assay: SOS-catalyzed nucleotide exchange assay (Procedure A, TR-FRET), KRAS-G12V; type: biochemical; conditions: nucleotide exchange, read-out: KRAS G12V GNE IC50
In short: as §1

[6] = test system: AsPC-1 cells; assay: Cellular phospho-ERK assay, AsPC-1 cells (homozygous KRAS-G12D); type: cell-based; conditions: Homo sapiens, ASPC1, 2 h, 2 hours compound incubation, read-out: AsPC1 pERK IC50
In short: as §2

[7] = target: HRAS (Homo sapiens, UniProt P01112); assay: SOS-catalyzed nucleotide exchange assay (Procedure A, TR-FRET), HRAS; type: biochemical; conditions: read-out: HRAS GNE IC50
Source text: Procedure for SOS-Catalyzed Nucleotide Exchange Assay for KRAS-WT, G12C/D/V, G13D, HRAS, and NRAS (Procedure A)
Recombinant KRAS-G12C protein used in this assay has an additional triple mutation (C51S/C80L/C118S). Whereas KRAS-WT, G12D/V, G13D, HRAS and NRAS are in context of their WT protein sequence background. Specifically, the SOS-catalyzed nucleotide exchange assay utilizes a preformed TR-FRET complex containing a specific biotinylated RAS protein (KRAS-WT, G12C/V/D, G13D, HRAS, NRAS; described above) with Bodipy-GDP, and Terbium-streptavidin. Compounds are preincubated with this complex for 60 minutes. Subsequently, recombinant human SOS protein and unlabeled GTP are added to initiate the exchange reaction. Small molecule inhibitors stabilize the Bodipy-GDP complex whereas the untreated protein rapidly exchanges Bodipy-GDP for unlabeled GTP resulting in reduced TR-FRET signal.
To assemble the preformed TR-FRET complexes, each biotinylated RAS protein is diluted to 2 μM in an EDTA Buffer (20 mM HEPES pH 7.5, 50 mM sodium chloride, 10 mM EDTA, and 0.01% Tween) and incubated at room temperature for one hour. This mixture is then further diluted to 90 nM in an Assay Buffer (20 mM HEPES pH 7.5, 150 mM sodium chloride, 10 mM magnesium chloride, and 0.005% Tween) containing 15 nM of Terbium-Streptavidin (Invitrogen, catalog #PV3577) and 900 nM of Bodipy-GDP (Invitrogen, catalog #G22360) and incubated at room temperature for six hours. It should be noted that this preformed TR-FRET complex for each of the RAS protein were made ahead of time, aliquoted and stored at −80° C. until the day of the experiment.
Each test compound (10 mM stock in DMSO) is diluted in DMSO to make a final-10-point, 3-fold dilution and is acoustically dispensed into a 384-well assay plate (Corning, catalog #3820) using an Echo 550 (Labcyte). Each well of the assay plate receives 3 μL of a specific 3×RAS preformed TR-FRET complex and 3 μL of Assay Buffer and is incubated at room temperature for 60 minutes (preincubation time). Each well then receives 3 μL of 3×recombinant human SOS protein and GTP (Sigma, G8877) in Assay Buffer and is incubated at room temperature for 30 minutes (G13D), 60 minutes (KRAS WT/G12C/D, H/NRAS) or 90 minutes for G12V. The final reaction in each well of 9 μL consists of 3 mM GTP, specific Ras and SOS proteins in the following concentrations: KRAS-G12C/SOS=3 nM/40 nM, KRAS-WT and G12D/SOS=1 nM/40 nM, KRAS-G12V/SOS=1.25 nM/160 nM. KRAS-G13D/SOS=1.25 nM/0 nM, HRAS and NRAS=1.25 nM/40 nM.
The time-resolved fluorescence resonance energy transfer (TR-FRET) signal is measured on an Envision (PerkinElmer) plate reader: Excitation filter=340 nm; emission 1=495 nm; emission2=520 nm; dichroic mirror=D400/D505; delay time=[…]. The signal of each well is determined as the ratio of the emission at 520 nm to that at 495 nm. Percent effect of each well is determined after normalization to control wells containing DMSO (no effect) or a saturating concentration of inhibitor (max effect). The apparent effect as a function of compound concentration is fit to a four-parameter logistic equation.

[8] = target: KRAS-G12C (C51S/C80L/C118S) (Homo sapiens, UniProt P01116, C118S/C51S/C80L/G12C); assay: SOS-catalyzed nucleotide exchange assay (Procedure A, TR-FRET), KRAS-G12C; type: biochemical; conditions: nucleotide exchange, Procedure A; read-out: KRAS G12C GNE IC50
In short: as §1

[9] = target: KRAS-G12D (Homo sapiens, UniProt P01116, G12D); assay: SOS-catalyzed nucleotide exchange assay (Procedure A, TR-FRET), KRAS-G12D; type: biochemical; conditions: nucleotide exchange, read-out: KRAS G12D GNE IC50
In short: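 Signal ratio (520/495 nm, excitation 340 nm) reports Bodipy-GDP retention on biotinylated RAS after SOS-catalyzed exchange with 3 mM GTP. SOS was 40 nM, except 160 nM for G12V. Room-temperature exchange lasted 60 min (90 min for G12V), following a 60 min compound preincubation.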

Chain of KRAS-G12D (P01116 with tags, fused parts or gaps isoform P01116-2 G12D): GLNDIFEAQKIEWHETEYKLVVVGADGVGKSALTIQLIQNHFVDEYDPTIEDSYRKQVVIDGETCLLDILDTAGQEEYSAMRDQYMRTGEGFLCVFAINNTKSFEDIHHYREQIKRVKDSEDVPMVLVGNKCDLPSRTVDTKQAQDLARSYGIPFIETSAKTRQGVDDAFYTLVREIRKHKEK
Chain of KRAS-G13D (P01116 with tags, fused parts or gaps isoform P01116-2 G13D): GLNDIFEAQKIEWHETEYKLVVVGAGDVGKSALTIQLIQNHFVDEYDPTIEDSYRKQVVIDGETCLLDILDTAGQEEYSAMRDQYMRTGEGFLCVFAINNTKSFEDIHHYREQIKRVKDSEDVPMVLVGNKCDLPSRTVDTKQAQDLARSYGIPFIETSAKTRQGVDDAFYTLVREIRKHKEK
Chain of KRAS-G12C (C51S/C80L/C118S) (P01116 with tags, fused parts or gaps isoform P01116-2 G12C/C51S/C80L/C118S): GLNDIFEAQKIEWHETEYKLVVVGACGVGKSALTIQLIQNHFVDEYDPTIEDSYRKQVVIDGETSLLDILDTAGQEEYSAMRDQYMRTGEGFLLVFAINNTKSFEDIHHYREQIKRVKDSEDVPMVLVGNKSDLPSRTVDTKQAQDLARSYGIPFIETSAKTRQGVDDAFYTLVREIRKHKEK
Chain of HRAS (P01112 with tags, fused parts or gaps): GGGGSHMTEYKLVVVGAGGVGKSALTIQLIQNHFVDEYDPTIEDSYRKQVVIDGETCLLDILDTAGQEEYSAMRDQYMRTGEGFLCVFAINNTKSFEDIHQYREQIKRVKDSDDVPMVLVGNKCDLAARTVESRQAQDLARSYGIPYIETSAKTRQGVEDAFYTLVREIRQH
Chain of KRAS-WT (P01116 with tags, fused parts or gaps isoform P01116-2): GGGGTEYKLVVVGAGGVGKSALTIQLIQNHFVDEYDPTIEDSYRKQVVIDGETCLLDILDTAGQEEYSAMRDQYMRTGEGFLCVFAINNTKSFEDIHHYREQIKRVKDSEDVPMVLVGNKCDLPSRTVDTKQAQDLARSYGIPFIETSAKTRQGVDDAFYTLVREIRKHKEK
Chain of KRAS-G12V (P01116 with tags, fused parts or gaps isoform P01116-2 G12V): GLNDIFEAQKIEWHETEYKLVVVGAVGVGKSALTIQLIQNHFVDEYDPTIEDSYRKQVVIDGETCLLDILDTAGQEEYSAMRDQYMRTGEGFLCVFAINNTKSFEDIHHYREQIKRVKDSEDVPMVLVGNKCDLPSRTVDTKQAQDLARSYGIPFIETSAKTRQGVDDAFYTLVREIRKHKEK

## CCc1c(F)ccc2cc3[nH]ncc3c(-c3nccc4c3sc3nc(OC[C@@]56CCCN5C[C@H](F)C6)nc(N5CCOC[C@@](C)(O)C5)c34)c12 [Ex-167, (6S)-4-(8-(5-ethyl-6-fluoro-1H-benzo[f]indazol-4-yl)-2-(((2R,7aS)-2-fluorotetrahydro-1H-pyrrolizin-7a(5H)-yl)methoxy)pyrido[4′,3′:4,5]thieno[2,3-d]pyrimidin-4-yl)-6-methyl-1,4-oxazepan-6-ol]
[1]
  IC50: 5 nM
[2]
  IC50: 10.1 nM
[3]
  IC50: 8.1 nM
[4]
  IC50: 16.1 nM
[5]
  IC50: 4.82 nM
[6]
  IC50: 23.4 nM
[7]
  IC50: 10300 nM
[8]
  IC50: 23.3 nM
[9]
  IC50: 3.28 nM

## C#Cc1cccc2cc3[nH]ncc3c(-c3nccc4c3sc3nc(OC[C@@]56CCCN5C[C@H](F)C6)nc(N5CCOC[C@@](C)(O)C5)c34)c12 [Ex-171, (6S)-4-(8-(5-ethynyl-1H-benzo[f]indazol-4-yl)-2-(((2R,7aS)-2-fluorotetrahydro-1H-pyrrolizin-7a(5H)-yl)methoxy)pyrido[4′,3′:4,5]thieno[2,3-d]pyrimidin-4-yl)-6-methyl-1,4-oxazepan-6-ol]
[1]
  IC50: 4.38 nM
[2]
  IC50: 5.03 nM
[3]
  IC50: 10.5 nM
[4]
  IC50: 24.2 nM
[5]
  IC50: 5.09 nM
[6]
  IC50: 12.3 nM
[7]
  IC50: 5130 nM
[8]
  IC50: 38.7 nM
[9]
  IC50: 1.65 nM

## C=C1CN2CCC[C@@]2(COc2nc(N3CCOC[C@@](C)(O)C3)c3c(n2)sc2c(-c4c(C5CC5)c(Cl)cc5[nH]ncc45)nccc23)C1 [Ex-224, (6S)-4-(8-(6-chloro-5-cyclopropyl-1H-indazol-4-yl)-2-(((S)-2-methylene-tetrahydro-1H-pyrrolizin-7a(5H)-yl)methoxy)pyrido [4′,3′:4,5]thieno[2,3-d]pyrimidin-4-yl)-6-methyl-1,4-oxaze-pan-6-ol]
[1]
  IC50: 5.37 nM
[2]
  IC50: 5.48 nM
[3]
  IC50: 9.81 nM
[4]
  IC50: 23.5 nM
[5]
  IC50: 11.9 nM
[6]
  IC50: 19.4 nM
[7]
  IC50: 3310 nM
[8]
  IC50: 19 nM
[9]
  IC50: 2.72 nM

## C[C@@]1(O)COCCN(c2nc(OC[C@]3(CN4CC5(CCOC5)C4)CC3(F)F)nc3sc4c(-c5c(C6(F)CC6)c(Cl)cc6[nH]ncc56)nccc4c23)C1 [Ex-245, (6S)-4-(2-(((R)-1-((6-oxa-2-azaspiro[3.4]octan-2-yl)methyl)-2,2-difluorocyclopropyl)methoxy)-8-(6-chloro-5-(1-fluorocyclopropyl)-1H-indazol-4-yl)pyrido[4′,3′:4,5]thieno[2,3-d)pyrimidin-4-yl)-6-methyl-1,4-oxazepan-6-ol]
[1]
  IC50: 18.5 nM
[2]
  IC50: 15.9 nM
[3]
  IC50: 47.6 nM
[4]
  IC50: 44 nM
[5]
  IC50: 12.9 nM
[6]
  IC50: 70.4 nM
[7]
  IC50: 1290 nM
[8]
  IC50: 19.1 nM
[9]
  IC50: 4.22 nM

## C[C@@]1(O)COCCN(c2nc(OC[C@]3(CN4CC(CF)C4)CC3(F)F)nc3sc4c(-c5c(C6(F)CC6)c(Cl)cc6[nH]ncc56)nccc4c23)C1 [Ex-266, (6S)-4-(8-(6-chloro-5-(1-fluorocyclopropyl)-1H-indazol-4-yl)-2-(((R)-2,2-difluoro-1-((3-(fluoromethyl)azetidin-1-yl)methyl)cyclopropyl)metho-xy)pyrido[4′,3′:4,5]thieno[2,3-d]pyrimidin-4-yl)-6-methyl-1,4-oxazepan-6-ol]
[1]
  IC50: 23.4 nM
[2]
  IC50: 28.2 nM
[3]
  IC50: 39.2 nM
[4]
  IC50: 47.3 nM
[5]
  IC50: 21.6 nM
[6]
  IC50: 89.7 nM
[7]
  IC50: 1290 nM
[8]
  IC50: 68.8 nM
[9]
  IC50: 3.75 nM

## C[C@@]1(O)COCCN(c2nc(OC[C@]3(CN4CC5(CCCOC5)C4)CC3(F)F)nc3sc4c(-c5c(C6(F)CC6)c(Cl)cc6[nH]ncc56)nccc4c23)C1 [Ex-249, (6S)-4-(2-(((R)-1-((6-oxa-2-azaspiro[3.5]nonan-2-yl)methyl)-2,2-difluorocyclopropyl)methoxy)-8-(6-chloro-5-(1-fluorocyclopropyl)-1H-indazol-4-yl)pyrido[4′,3′:4,5]thieno[2,3-d]pyrimidin-4-yl)-6-methyl-1,4-oxazepan-6-ol]
[1]
  IC50: 20.2 nM
[2]
  IC50: 21.3 nM
[3]
  IC50: 51.2 nM
[4]
  IC50: 36.5 nM
[5]
  IC50: 15.5 nM
[6]
  IC50: 73.8 nM
[7]
  IC50: 943 nM
[8]
  IC50: 11.4 nM
[9]
  IC50: 2.69 nM

## C#Cc1c(F)sc2cc3[nH]ncc3c(-c3nccc4c3sc3nc(OC[C@@]56CCCN5C[C@H](F)C6)nc(N5CCOC[C@@](C)(O)C5)c34)c12 [Ex-164]
[1]
  IC50: 2.06 nM
[2]
  IC50: 6.61 nM
[3]
  IC50: 2.76 nM
[4]
  IC50: 14.6 nM
[5]
  IC50: 3.15 nM
[6]
  IC50: 5.76 nM
[7]
  IC50: 1890 nM
[8]
  IC50: 35.1 nM
[9]
  IC50: 1.49 nM

## C[C@@]1(O)COCCN(c2nc(OC[C@@]34CCCN3C/C(=C/F)C4)nc3sc4c(-c5c(C6CC6)c(Cl)cc6[nH]ncc56)nccc4c23)C1 [Ex-209, (6S)-4-(8-(6-chloro-5-cyclopropyl-1H-indazol-4-yl)-2-(((S,E)-2-(fluoro-methylene)tetra-hydro-1H-pyrrol-izin-7a(5H)-yl)-methoxy)pyrido [4′,3′:4,5]thieno [2,3-d]pyrimidin-4-yl)-6-methyl-1,4-oxazepan-6-ol]
[1]
  IC50: 9.46 nM
[2]
  IC50: 13.6 nM
[3]
  IC50: 49.7 nM
[4]
  IC50: 158 nM
[5]
  IC50: 12 nM
[6]
  IC50: 53 nM
[7]
  IC50: 9430 nM
[8]
  IC50: 47.7 nM
[9]
  IC50: 2.91 nM
